Source: patent US11634450B2, “DOT1L degraders and uses thereof” (DANA-FARBER CANCER INSTITUTE, INC., priority 2018, dated 2023)

How the values were obtained:
DOT1L [1] = molecular target: T1, DOT1L (Mus musculus, UniProt Q6XZL8); experiment: Degradation in mouse MLL-AF9 PA cell line by immunoblot; assay type: cell-based; conditions: FIGS. 10A-10B, mouse MLL-AF9 PA cells, up to 10 μM, 24, 48 and 72 hours
T1 construct: endogenous in cells; host or cells: mouse MLL-AF9 PA leukemia cells
Description: FIGS. 10A-10B show mouse MLL-AF9 PA (Mixed-lineage leukemia (MLL)-AF9 leukemia) cells treated with DOT1L-1 at the indicated concentrations for the indicated amount of time. The cells were immunoblotted with DOT1L (D402T), actin, and H3K79me2.
Mouse MLL-AF9 PA (Mixed-lineage leukemia (MLL)-AF9 leukemia) cells were treated with DOT1L-1 at 0 μM, 0.3 μM, 1 μM, 3.3 μM, and 10 μM for 24 hours, 48 hours, and 72 hours. Cell lysates were loaded on SDS-PAGE, then immunoblotted with DOT1L (D402T), actin, H3K79me2, and total H3. A second treatment was performed with DOT1L-1 concentrations of 0 μM, 0.01 μM, 0.1 μM, 0.3 μM, 1 μM, 3.3 μM, and 10 μM, at 24 hours and 48 hours.

DOT1L [2] = molecular target: T2, DOT1L (Homo sapiens, UniProt Q8TEK3); experiment: Degradation in Molm13 PA cell line by immunoblot; assay type: cell-based; parameters: endogenous in cells; conditions: FIGS. 9A-9B, 0.3 μM to 10 μM, 24, 48 and 72 hours
T2 sequence (Q8TEK3 whole entry): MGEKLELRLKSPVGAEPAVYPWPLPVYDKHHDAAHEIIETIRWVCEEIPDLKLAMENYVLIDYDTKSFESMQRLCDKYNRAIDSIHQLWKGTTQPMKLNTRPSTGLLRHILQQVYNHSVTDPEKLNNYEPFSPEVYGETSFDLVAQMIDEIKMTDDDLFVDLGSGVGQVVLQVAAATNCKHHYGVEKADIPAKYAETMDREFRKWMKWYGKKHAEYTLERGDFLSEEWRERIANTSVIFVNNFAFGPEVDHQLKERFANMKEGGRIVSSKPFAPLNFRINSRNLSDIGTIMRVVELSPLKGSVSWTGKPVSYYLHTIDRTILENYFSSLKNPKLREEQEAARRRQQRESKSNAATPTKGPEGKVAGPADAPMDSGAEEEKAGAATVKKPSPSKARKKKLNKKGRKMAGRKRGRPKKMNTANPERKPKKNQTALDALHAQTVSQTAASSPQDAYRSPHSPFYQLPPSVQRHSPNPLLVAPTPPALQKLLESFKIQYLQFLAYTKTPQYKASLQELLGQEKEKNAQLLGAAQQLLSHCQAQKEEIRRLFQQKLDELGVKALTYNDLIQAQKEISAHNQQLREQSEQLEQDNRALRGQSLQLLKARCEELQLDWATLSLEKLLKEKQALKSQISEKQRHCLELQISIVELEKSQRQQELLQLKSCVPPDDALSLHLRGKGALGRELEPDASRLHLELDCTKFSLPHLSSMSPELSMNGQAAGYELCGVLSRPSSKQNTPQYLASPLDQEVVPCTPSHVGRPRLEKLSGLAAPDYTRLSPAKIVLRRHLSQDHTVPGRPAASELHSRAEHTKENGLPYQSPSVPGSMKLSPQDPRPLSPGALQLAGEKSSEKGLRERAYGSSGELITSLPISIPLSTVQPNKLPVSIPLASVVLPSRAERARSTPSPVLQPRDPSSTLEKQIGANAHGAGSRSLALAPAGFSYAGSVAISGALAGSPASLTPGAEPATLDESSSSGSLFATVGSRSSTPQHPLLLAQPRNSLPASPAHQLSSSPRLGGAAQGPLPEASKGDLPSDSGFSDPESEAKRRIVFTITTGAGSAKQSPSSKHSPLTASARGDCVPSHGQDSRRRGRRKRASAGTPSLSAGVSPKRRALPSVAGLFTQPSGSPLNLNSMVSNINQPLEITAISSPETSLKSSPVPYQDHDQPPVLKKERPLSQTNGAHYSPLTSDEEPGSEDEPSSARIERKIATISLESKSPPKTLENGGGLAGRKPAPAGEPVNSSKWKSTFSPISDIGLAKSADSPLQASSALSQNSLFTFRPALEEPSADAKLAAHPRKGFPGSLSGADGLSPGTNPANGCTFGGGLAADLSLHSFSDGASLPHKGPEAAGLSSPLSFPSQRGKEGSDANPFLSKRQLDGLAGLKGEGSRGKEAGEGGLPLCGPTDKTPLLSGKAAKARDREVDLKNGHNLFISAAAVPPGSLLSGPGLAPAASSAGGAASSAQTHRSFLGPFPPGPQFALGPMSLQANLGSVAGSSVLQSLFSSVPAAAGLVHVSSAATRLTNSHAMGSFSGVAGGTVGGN
Description: FIGS. 9A-9B show acute myeloid leukemia cells (Molm13 PA) treated with DOT1L-1 at the indicated concentrations for the indicated amount of time. The cells were immunoblotted with DOT1L (D402T), actin, and H3K79me2.
The cells were immunoblotted with DOT1L (D402T), actin, and H3K79me2.
Molm13PA (acute myeloid leukemia) cells were treated with dDOT1L-1 at 0 μM, 0.3 μM, 1 μM, 3.3 μM, and 10 μM for 24 hours and 48 hours. Cell lysates were loaded on SDS-PAGE, then immunoblotted with DOT1L (D402T), actin, H3K79me2, total H3. Repeat treatment was performed at 24 hours, 48 hours and 72 hours at the same concentrations of dDOT1L-1. […] (see FIGS. 9A-9B).
Molm13PA (acute myeloid leukemia) cells were treated with DOT1L-4 at 0 μM, 0.3 μM, 1 μM, 3.3 μM, and 10 μM for 24 hours, 48 hours, and 72 hours. Cell lysates were loaded on SDS-PAGE, then immunoblotted with DOT1L (D402T), actin, H3K79me2, total H3.

CRBN with DOT1L = CRBN with DOT1L (Homo sapiens, UniProt Q8TEK3+Q96SW2); experiment: Biochemical dimerization assay of CRBN with DOT1L induced by the degraders; conditions: FIG. 20, biochemical assay setting
Sequence of CRBN with DOT1L (Q8TEK3 whole entry): as above
Sequence of CRBN with DOT1L (Q96SW2 whole entry): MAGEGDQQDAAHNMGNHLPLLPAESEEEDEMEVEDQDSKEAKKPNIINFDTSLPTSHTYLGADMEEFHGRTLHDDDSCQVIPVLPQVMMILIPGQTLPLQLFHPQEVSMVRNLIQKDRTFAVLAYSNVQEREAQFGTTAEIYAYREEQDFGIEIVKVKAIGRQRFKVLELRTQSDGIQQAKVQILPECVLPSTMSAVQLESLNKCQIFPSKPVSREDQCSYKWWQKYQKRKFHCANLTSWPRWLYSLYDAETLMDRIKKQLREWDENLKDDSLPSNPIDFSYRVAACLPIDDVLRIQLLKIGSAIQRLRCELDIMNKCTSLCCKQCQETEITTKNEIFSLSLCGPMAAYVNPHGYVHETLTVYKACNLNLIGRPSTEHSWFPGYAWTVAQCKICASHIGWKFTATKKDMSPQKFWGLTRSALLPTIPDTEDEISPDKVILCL
Excerpt: This new assay checks if the exemplary compounds can dimerize CRBN and DOT1L in a biochemical assay setting.
A biochemical assay was completed to determine the dimerization of CRBN with DOT1L induced by the degraders. This assay checks if the exemplary compounds can dimerize CRBN and DOT1L in a biochemical assay setting.

[3] = molecular target: T3, DOT1L tagged GFP and mcherry (Homo sapiens, UniProt Q8TEK3+Q96SW2); experiment: DOT1L degradation eGFP-mCherry reporting cell line assay; assay type: cell-based; conditions: FIG. 26, eGFP-mCherry reporting cell line, 24 hour treatment
T3 construct: eGFP; mCherry; expressed in transfected cells
T3 sequence (Q8TEK3 whole entry): as the sequence (Q8TEK3 whole entry) above
T3 sequence (Q96SW2 whole entry): as the sequence (Q96SW2 whole entry) above
T3 sequence (Q16531 whole entry partner): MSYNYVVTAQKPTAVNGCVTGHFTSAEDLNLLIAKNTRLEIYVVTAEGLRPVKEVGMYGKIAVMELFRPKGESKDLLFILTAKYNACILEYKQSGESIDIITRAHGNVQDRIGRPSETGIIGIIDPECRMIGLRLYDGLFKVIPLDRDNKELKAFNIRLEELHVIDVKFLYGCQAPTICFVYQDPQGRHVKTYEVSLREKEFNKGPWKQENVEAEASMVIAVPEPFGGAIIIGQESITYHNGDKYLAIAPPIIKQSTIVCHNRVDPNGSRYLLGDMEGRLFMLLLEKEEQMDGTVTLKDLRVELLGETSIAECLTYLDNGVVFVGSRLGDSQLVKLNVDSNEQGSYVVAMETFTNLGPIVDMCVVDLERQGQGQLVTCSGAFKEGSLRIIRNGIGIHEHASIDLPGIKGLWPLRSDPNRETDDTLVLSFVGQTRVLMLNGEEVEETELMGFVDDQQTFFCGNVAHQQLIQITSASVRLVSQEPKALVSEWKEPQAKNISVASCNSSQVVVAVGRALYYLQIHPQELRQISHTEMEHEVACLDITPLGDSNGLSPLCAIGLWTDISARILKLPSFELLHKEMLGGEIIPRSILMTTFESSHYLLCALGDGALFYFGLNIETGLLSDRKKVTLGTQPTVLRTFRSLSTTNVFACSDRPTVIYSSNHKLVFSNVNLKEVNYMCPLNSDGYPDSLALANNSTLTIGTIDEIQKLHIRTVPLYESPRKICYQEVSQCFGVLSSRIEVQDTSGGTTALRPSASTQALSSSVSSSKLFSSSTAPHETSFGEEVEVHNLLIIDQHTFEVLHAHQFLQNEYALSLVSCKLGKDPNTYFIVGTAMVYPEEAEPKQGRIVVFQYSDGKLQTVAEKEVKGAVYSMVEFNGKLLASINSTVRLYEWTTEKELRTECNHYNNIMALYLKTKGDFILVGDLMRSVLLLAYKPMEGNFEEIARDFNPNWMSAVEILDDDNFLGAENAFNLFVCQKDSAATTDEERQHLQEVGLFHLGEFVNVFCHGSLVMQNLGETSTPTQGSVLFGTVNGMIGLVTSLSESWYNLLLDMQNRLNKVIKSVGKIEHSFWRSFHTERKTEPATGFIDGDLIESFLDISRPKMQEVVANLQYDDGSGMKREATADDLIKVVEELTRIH
Description: This can directly report the targeted protein degradation. (See Sievers et al., Science, 2018).
The tested compounds include exemplary DOT1L degrader compounds JQ-DD2, JQ-DD3, JQ-DD4, JQ-DD5, JQ-DD6, JQ-DD7, JQ-DD8, negative control EPZ5676, and positive controls thalidomide and lenalidomide. The eGFP-mCherry reporting cell line can report the degradation well in 24 hours.
A new DOT1L degradation reporting cell line was developed with DOT1L tagged GFP and mcherry. This reporting cell line can directly report the targeted protein degradation. (See Sievers et al., Science, 2018). DOT1L degradation using eGFP-mCherry reporting cell line assays were conducted for exemplary DOT1L degrader compounds, and control compounds at different concentrations [M], measured in [M] per mP. The tested compounds include exemplary DOT1L degrader compounds JQ-DD2, JQ-DD3, JQ-DD4, JQ-DD5, JQ-DD6, JQ-DD7, JQ-DD8, and controls EPZ5676, Thalidomide, and Lenalidomide.

DOT1L [4] = molecular target: T2, DOT1L; experiment: DOT1L degradation in EOL1 cells by immunoblot; assay type: cell-based; parameters: endogenous in cells; host or cells: EOL1; conditions: for DOT1L degradation: immunoblot
Description: With JQ-DD6, the degradation happened at 16 hours and maximum degradation occurs at 24 hours.
(§1) EOL1 (acute myeloid (eosinophilic) leukemia cell line) cells were treated with exemplary DOT1L degrader compounds JQ-DD6, JQ-DD7, and JQ-DD8 at 0.5 μM, 1 μM, 3 μM, 5 μM, and 10 μM for 24 hours. Cell lysates were loaded on SDS-PAGE, then immunoblotted with DOT1L, Myc, H3K79me2, and actin. (see FIG. 21).
EOL1 cells were treated with exemplary DOT1L degrader compounds JQ-DD2, JQ-DD4, and JQ-DD6, JQ-DD7, and JQ-DD8 at 1 μM and […] for 2, 4, 8, 16, and 24 hours. Cell lysates were immunoblotted with DOT1L, Myc, H3K79me2, and actin at the indicated concentrations for the indicated times. (see FIG. 23).
(§2) EOL1 cells were treated with exemplary DOT1L degrader compounds JQ-DD6, JQ-DD7, and JQ-DD8 at 1 μM and […] for 24 and 48 hours. Cell lysates were immunoblotted with DOT1L, Myc, H3K79me2, and actin at the indicated concentrations for the indicated times. (see FIG. 24).

EOL1 cells = experiment: Toxicity seen in EOL1 cells treated for immunoblot; assay type: cell-based; conditions: at 24 hours
Description: as §1, §2

[5] = FIG. 21, EOL1 cells, 0.5 μM, 1 μM, 3 μM, 5 μM, and 10 μM for 24 hours
[6] = FIG. 23, EOL1 cells, time course 2, 4, 8, 16, and 24 hours, 1 μM and 10M
[7] = FIG. 24, EOL1 cells, 1 μM and 10M for 24 and 48 hours

T1 sequence (Q6XZL8 1-1540): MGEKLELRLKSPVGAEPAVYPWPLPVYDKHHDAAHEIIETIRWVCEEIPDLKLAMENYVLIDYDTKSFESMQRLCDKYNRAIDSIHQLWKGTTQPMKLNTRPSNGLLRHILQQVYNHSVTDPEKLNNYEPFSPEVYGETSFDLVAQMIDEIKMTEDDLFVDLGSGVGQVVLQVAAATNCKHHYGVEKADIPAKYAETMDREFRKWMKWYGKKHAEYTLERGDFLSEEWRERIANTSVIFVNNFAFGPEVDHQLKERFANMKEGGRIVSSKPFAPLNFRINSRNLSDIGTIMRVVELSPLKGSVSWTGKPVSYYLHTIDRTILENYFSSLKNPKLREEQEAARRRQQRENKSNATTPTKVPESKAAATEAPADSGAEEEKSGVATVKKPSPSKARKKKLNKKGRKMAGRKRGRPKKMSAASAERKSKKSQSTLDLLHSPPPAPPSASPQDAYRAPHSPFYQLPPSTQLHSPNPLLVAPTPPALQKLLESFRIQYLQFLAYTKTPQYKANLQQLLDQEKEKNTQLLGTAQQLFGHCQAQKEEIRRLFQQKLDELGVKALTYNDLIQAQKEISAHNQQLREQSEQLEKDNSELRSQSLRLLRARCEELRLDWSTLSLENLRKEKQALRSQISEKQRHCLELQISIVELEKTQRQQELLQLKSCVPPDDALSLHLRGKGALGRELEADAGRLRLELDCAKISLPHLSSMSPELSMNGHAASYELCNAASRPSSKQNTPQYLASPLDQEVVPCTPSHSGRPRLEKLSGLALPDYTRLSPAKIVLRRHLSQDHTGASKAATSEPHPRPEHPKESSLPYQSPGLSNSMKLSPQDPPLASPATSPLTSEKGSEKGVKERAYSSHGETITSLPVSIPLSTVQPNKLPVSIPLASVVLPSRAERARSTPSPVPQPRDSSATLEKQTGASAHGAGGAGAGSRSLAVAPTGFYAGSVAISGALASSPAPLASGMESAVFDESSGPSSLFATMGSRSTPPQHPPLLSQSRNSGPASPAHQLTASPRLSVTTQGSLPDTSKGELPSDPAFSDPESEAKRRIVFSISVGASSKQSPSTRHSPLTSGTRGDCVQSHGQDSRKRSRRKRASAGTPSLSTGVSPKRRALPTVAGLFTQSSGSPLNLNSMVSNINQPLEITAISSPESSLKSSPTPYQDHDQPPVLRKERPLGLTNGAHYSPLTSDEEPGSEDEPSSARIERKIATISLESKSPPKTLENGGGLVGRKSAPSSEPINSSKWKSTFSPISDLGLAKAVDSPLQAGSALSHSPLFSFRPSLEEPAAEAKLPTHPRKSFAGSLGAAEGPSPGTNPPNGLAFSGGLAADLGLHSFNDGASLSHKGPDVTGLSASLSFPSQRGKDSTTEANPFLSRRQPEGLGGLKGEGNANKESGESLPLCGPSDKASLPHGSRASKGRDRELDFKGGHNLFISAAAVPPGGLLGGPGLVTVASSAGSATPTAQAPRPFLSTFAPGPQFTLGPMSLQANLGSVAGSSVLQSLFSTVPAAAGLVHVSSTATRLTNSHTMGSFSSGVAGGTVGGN

CC(C)N(C[C@H]1O[C@@H](n2cnc3c(NCCCCNC(=O)C=COCCOCCOCCNc4cccc5c4C(=O)N(C4CCC(=O)NC4=O)C5=O)ncnc32)[C@H](O)[C@@H]1O)C1CC(CCc2nc3cc(C(C)(C)C)ccc3[nH]2)C1 (stereo partly drawn) [DOT1L-1, N-(4-((9-((2R,3R,4S,5R)-5-(((3-(2-(5-(tert-butyl)-1H-benzo[d]imidazol-2-yl)ethyl)cyclobutyl)(isopropyl)amino)methyl)-3,4-dihydroxytetrahydrofuran-2-yl)-9H-purin-6-yl)amino)butyl)-3-(2-(2-(2-((2-(2,6-dioxopiperidin-3-yl)-1,3-dioxoisoindolin-4-yl)amino)ethoxy)ethoxy)ethoxy)propenamide]
degradation in blots (DOT1L, H3K79me2) (DOT1L [1]): degrades Mouse MLL-AF9 PA (Mixed-lineage leukemia (MLL)-AF9 leukemia) cells | effect on Molm13 PA cells in blots (DOT1L, H3K79me2) (DOT1L [2]): inhibits acute myeloid leukemia cells (Molm13 PA)

CC(C)N(C[C@H]1O[C@@H](n2cnc3c(NCCCCNC(=O)CCCCCCCCCCCNc4cccc5c4C(=O)N(C4CCC(=O)NC4=O)C5=O)ncnc32)C(O)C1O)C1CC(CCc2nc3cc(C(C)(C)C)ccc3[nH]2)C1 (stereo partly drawn) [JQ-DD6]
dimerization of CRBN with DOT1L (signal) (CRBN with DOT1L): strongest signal | degradation of DOT1L (reporter signal) [3]: strongest signal for degradation of DOT1L | DOT1L degradation (DOT1L [4]; [5]): solid degradation | time at which DOT1L degradation happened (DOT1L [4]; [6]): 16 h | time of maximum DOT1L degradation (DOT1L [4]; [6]): 24 h | DOT1L degradation (DOT1L [4]; [7]): shows degradation | activity in the cell (DOT1L [4]; general remark in legend of FIG. 20, cell not named there): works very well in the cell

CC(C)N(C[C@H]1O[C@@H](n2cnc3c(NCCCCNC(=O)CCCCCCCCCNc4cccc5c4C(=O)N(C4CCC(=O)NC4=O)C5=O)ncnc32)C(O)C1O)C1CC(CCc2nc3cc(C(C)(C)C)ccc3[nH]2)C1 (stereo partly drawn) [JQ-DD7]
DOT1L degradation (DOT1L [4]; [5]): show degradation | DOT1L degradation (DOT1L [4]; [7]): shows degradation

CC(C)N(CCCNC(=O)Nc1ccc(C(C)(C)C)cc1)C[C@H]1O[C@@H](n2cnc3c(NCCCCNC(=O)CCCCCCCCCCCNc4cccc5c4C(=O)N(C4CCC(=O)NC4=O)C5=O)ncnc32)C(O)C1O (stereo partly drawn) [JQ-DD8]
toxicity in EOL1 (EOL1 cells; FIG. 21, EOL1 cells): potential toxicity | toxicity in EOL1 (EOL1 cells; FIG. 24, EOL1 cells): potential toxicity | DOT1L degradation (DOT1L [4]; [5]): show degradation | DOT1L degradation (DOT1L [4]; [7]): shows degradation
